Reference: the NIST ThermoML archive (doi:10.1016/j.jct.2016.02.009)

Test: molar heat capacity at constant pressure
Conditions: 101.33 kPa, Small (less than 1 g) adiabatic calorimetry

CCCCCCCCCCCCCCCCn1cc[n+](C)c1.O=S(=O)([N-]S(=O)(=O)C(F)(F)F)C(F)(F)F
Conditions | molar heat capacity at constant pressure [J/K/mol]
5 K, Crystal 2 | 3.58
5.4 K, Crystal 2 | 4.43
5.7 K, Crystal 2 | 5.11
6.07 K, Crystal 2 | 6
6.51 K, Crystal 2 | 7.15
7.03 K, Crystal 2 | 8.58
7.55 K, Crystal 2 | 10.13
8.08 K, Crystal 2 | 11.79
8.61 K, Crystal 2 | 13.56
9.15 K, Crystal 2 | 15.43
9.69 K, Crystal 2 | 17.38
10 K, Crystal 2 | 18.51
10.24 K, Crystal 2 | 19.41
10.84 K, Crystal 2 | 21.73
11.53 K, Crystal 2 | 24.47
12.23 K, Crystal 2 | 27.33
12.92 K, Crystal 2 | 30.31
13.62 K, Crystal 2 | 33.36
14.33 K, Crystal 2 | 36.54
15 K, Crystal 2 | 39.66
15.04 K, Crystal 2 | 39.85
15.87 K, Crystal 2 | 43.67
16.8 K, Crystal 2 | 48.11
17.74 K, Crystal 2 | 52.48
18.67 K, Crystal 2 | 56.86
19.62 K, Crystal 2 | 61.3
20 K, Crystal 2 | 63.15
20.86 K, Crystal 2 | 67.23
22.4 K, Crystal 2 | 74.52
23.97 K, Crystal 2 | 81.98
25 K, Crystal 2 | 86.78
25.53 K, Crystal 2 | 89.27
27.13 K, Crystal 2 | 96.62
28.72 K, Crystal 2 | 103.9
30 K, Crystal 2 | 109.7
30.29 K, Crystal 2 | 111.1
32.02 K, Crystal 2 | 118.8
33.92 K, Crystal 2 | 126.8
35 K, Crystal 2 | 131.4
35.82 K, Crystal 2 | 134.8
37.72 K, Crystal 2 | 142.5
39.62 K, Crystal 2 | 150
40 K, Crystal 2 | 151.7
41.61 K, Crystal 2 | 158
43.71 K, Crystal 2 | 166.2
45 K, Crystal 2 | 171.3
45.8 K, Crystal 2 | 174.3
47.91 K, Crystal 2 | 182.4
50 K, Crystal 2 | 190
50.02 K, Crystal 2 | 190.2
52.13 K, Crystal 2 | 197.8
54.23 K, Crystal 2 | 205.2
56.35 K, Crystal 2 | 212.4
58.48 K, Crystal 2 | 219.5
60 K, Crystal 2 | 224.6
60.6 K, Crystal 2 | 226.5
62.72 K, Crystal 2 | 233.3
64.85 K, Crystal 2 | 240.1
66.98 K, Crystal 2 | 246.6
69.1 K, Crystal 2 | 253.2
70 K, Crystal 2 | 255.9
71.33 K, Crystal 2 | 259.9
73.67 K, Crystal 2 | 266.6
76.02 K, Crystal 2 | 273.4
78.38 K, Crystal 2 | 280
80 K, Crystal 2 | 284.5
80.57 K, Crystal 2 | 286.3
80.73 K, Crystal 2 | 286.6
82.48 K, Crystal 2 | 291.2
83.09 K, Crystal 2 | 292.8
84.4 K, Crystal 2 | 296.1
86.33 K, Crystal 2 | 301.2
88.27 K, Crystal 2 | 306.3
90 K, Crystal 2 | 310.8
90.22 K, Crystal 2 | 311.2
92.18 K, Crystal 2 | 316.2
94.15 K, Crystal 2 | 321.1
96.13 K, Crystal 2 | 326.1
98.11 K, Crystal 2 | 331
100 K, Crystal 2 | 335.5
100.1 K, Crystal 2 | 335.8
102.15 K, Crystal 2 | 340.8
104.27 K, Crystal 2 | 345.7
106.4 K, Crystal 2 | 350.6
108.54 K, Crystal 2 | 355.4
110 K, Crystal 2 | 358.8
110.68 K, Crystal 2 | 360.3
112.83 K, Crystal 2 | 365
114.99 K, Crystal 2 | 369.8
117.15 K, Crystal 2 | 374.5
119.31 K, Crystal 2 | 379.2
120 K, Crystal 2 | 380.5
121.48 K, Crystal 2 | 383.7
123.65 K, Crystal 2 | 388.2
125.82 K, Crystal 2 | 392.8
128 K, Crystal 2 | 397.3
130 K, Crystal 2 | 401.4
130.17 K, Crystal 2 | 401.7
132.35 K, Crystal 2 | 406.2
134.53 K, Crystal 2 | 410.6
136.71 K, Crystal 2 | 415
138.9 K, Crystal 2 | 419.3
140 K, Crystal 2 | 421.7
141.08 K, Crystal 2 | 423.7
143.27 K, Crystal 2 | 428.1
145.46 K, Crystal 2 | 432.5
147.65 K, Crystal 2 | 436.9
149.84 K, Crystal 2 | 441.2
150 K, Crystal 2 | 441.5
152.03 K, Crystal 2 | 445.6
154.22 K, Crystal 2 | 449.8
156.4 K, Crystal 2 | 454.1
158.59 K, Crystal 2 | 458.5
160 K, Crystal 2 | 461.2
160.78 K, Crystal 2 | 462.8
162.97 K, Crystal 2 | 467.2
165.16 K, Crystal 2 | 471.4
167.34 K, Crystal 2 | 475.7
169.53 K, Crystal 2 | 479.8
170 K, Crystal 2 | 480.8
171.71 K, Crystal 2 | 484.1
173.9 K, Crystal 2 | 488.4
176.08 K, Crystal 2 | 492.8
178.26 K, Crystal 2 | 497.1
180 K, Crystal 2 | 500.5
180.45 K, Crystal 2 | 501.5
182.63 K, Crystal 2 | 505.9
184.82 K, Crystal 2 | 510.1
187 K, Crystal 2 | 514.3
189.17 K, Crystal 2 | 518.6
190 K, Crystal 2 | 520.4
191.35 K, Crystal 2 | 523.1
193.52 K, Crystal 2 | 527.5
195.69 K, Crystal 2 | 531.7
197.86 K, Crystal 2 | 536.3
200 K, Crystal 2 | 540.8
200.02 K, Crystal 2 | 540.9
202.25 K, Crystal 2 | 545.6
204.54 K, Crystal 2 | 550.5
206.82 K, Crystal 2 | 555.5
209.11 K, Crystal 2 | 560.4
210 K, Crystal 2 | 562.3
211.39 K, Crystal 2 | 565.4
213.67 K, Crystal 2 | 570.5
215.95 K, Crystal 2 | 575.6
218.21 K, Crystal 2 | 580.9
220 K, Crystal 2 | 585
220.48 K, Crystal 2 | 586.3
222.74 K, Crystal 2 | 591.8
225 K, Crystal 2 | 597.1
227.25 K, Crystal 2 | 602.4
229.5 K, Crystal 2 | 607.7
230 K, Crystal 2 | 609.3
231.74 K, Crystal 2 | 613.5
233.97 K, Crystal 2 | 619.4
236.21 K, Crystal 2 | 625.3
238.43 K, Crystal 2 | 631.2
240 K, Crystal 2 | 635.6
240.65 K, Crystal 2 | 637.6
242.87 K, Crystal 2 | 643.5
245.08 K, Crystal 2 | 650
247.28 K, Crystal 2 | 657
249.47 K, Crystal 2 | 663.5
250 K, Crystal 2 | 665.4
251.67 K, Crystal 2 | 671.1
253.85 K, Crystal 2 | 678.2
256.03 K, Crystal 2 | 685.8
258.19 K, Crystal 2 | 693.5
260 K, Crystal 2 | 700.6
260.35 K, Crystal 2 | 701.7
262.5 K, Crystal 2 | 710.5
264.64 K, Crystal 2 | 719.9
266.77 K, Crystal 2 | 729.9
268.89 K, Crystal 2 | 740.5
270 K, Crystal 2 | 745.5
271 K, Crystal 2 | 751.1
273.1 K, Crystal 2 | 761.1
275.18 K, Crystal 2 | 773.4
277.25 K, Crystal 2 | 786.9
279.3 K, Crystal 2 | 801
280 K, Crystal 2 | 806.6
281.34 K, Crystal 2 | 816.9
283.37 K, Crystal 2 | 834.5
285.38 K, Crystal 2 | 853.3
287.36 K, Crystal 2 | 875.7
289.32 K, Crystal 2 | 901.5
290 K, Crystal 2 | 909.7
291.26 K, Crystal 2 | 930.9
293.07 K, Crystal 2 | 958.5
293.16 K, Crystal 2 | 965
293.61 K, Crystal 2 | 968.5
294.12 K, Crystal 2 | 978.5
294.63 K, Crystal 2 | 990.3
295.02 K, Crystal 2 | 1004
295.14 K, Crystal 2 | 1002
295.64 K, Crystal 2 | 1014
296.14 K, Crystal 2 | 1027
296.64 K, Crystal 2 | 1039
296.85 K, Crystal 2 | 1050
297.14 K, Crystal 2 | 1053
297.63 K, Crystal 2 | 1068
298.11 K, Crystal 2 | 1082
298.15 K, Crystal 2 | 1084
298.6 K, Crystal 2 | 1098
298.63 K, Crystal 2 | 1103
299.08 K, Crystal 2 | 1113
299.55 K, Crystal 2 | 1129
300 K, Crystal 2 | 1146
300.03 K, Crystal 2 | 1146
300.36 K, Crystal 2 | 1161
300.49 K, Crystal 2 | 1161
300.96 K, Crystal 2 | 1177
301.42 K, Crystal 2 | 1193
301.88 K, Crystal 2 | 1207
302.1 K, Crystal 2 | 1219
302.34 K, Crystal 2 | 1222
302.79 K, Crystal 2 | 1235
303.24 K, Crystal 2 | 1248
303.69 K, Crystal 2 | 1253
303.84 K, Crystal 2 | 1262
304.13 K, Crystal 2 | 1267
304.58 K, Crystal 2 | 1271
305.02 K, Crystal 2 | 1273
305.47 K, Crystal 2 | 1274
305.5 K, Crystal 1 | 1274
305.5 K, Crystal 2 | 1274
305.56 K, Crystal 1 | 1278
305.91 K, Crystal 1 | 1275
306.36 K, Crystal 1 | 1271
306.8 K, Crystal 1 | 1269
307.24 K, Crystal 1 | 1268
307.28 K, Crystal 1 | 1272
307.69 K, Crystal 1 | 1266
308.14 K, Crystal 1 | 1261
308.58 K, Crystal 1 | 1257
309.01 K, Crystal 1 | 1254
309.03 K, Crystal 1 | 1251
309.48 K, Crystal 1 | 1242
309.93 K, Crystal 1 | 1229
310 K, Crystal 1 | 1229
310.39 K, Crystal 1 | 1187
310.81 K, Crystal 1 | 1097
310.86 K, Crystal 1 | 1054
311.36 K, Crystal 1 | 989.7
311.88 K, Crystal 1 | 984.4
312.39 K, Crystal 1 | 986.1
312.73 K, Crystal 1 | 995.5
312.9 K, Crystal 1 | 992
313.41 K, Crystal 1 | 997.9
313.91 K, Crystal 1 | 1011
314.42 K, Crystal 1 | 1032
314.68 K, Crystal 1 | 1051
316.51 K, Crystal 1 | 1261
319.25 K, Crystal 1 | 1044
319.25 K, Liquid | 972
320 K, Liquid | 972
320.76 K, Liquid | 972.6
321.02 K, Liquid | 972.6
322.55 K, Liquid | 974.4
322.92 K, Liquid | 974.4
324.34 K, Liquid | 976.2
324.82 K, Liquid | 975.6
326.13 K, Liquid | 977.9
326.72 K, Liquid | 977.3
327.92 K, Liquid | 978.5
328.62 K, Liquid | 979.7
329.71 K, Liquid | 980.3
330 K, Liquid | 981
330.52 K, Liquid | 981.4
331.5 K, Liquid | 982
332.43 K, Liquid | 982.6
333.29 K, Liquid | 983.8
334.33 K, Liquid | 984.4
335.08 K, Liquid | 985.6
336.23 K, Liquid | 986.1
336.87 K, Liquid | 986.7
338.13 K, Liquid | 988.5
338.66 K, Liquid | 989.1
340 K, Liquid | 990
340.03 K, Liquid | 990.3
340.45 K, Liquid | 990.3
341.93 K, Liquid | 991.4
342.24 K, Liquid | 992
343.84 K, Liquid | 993.8
344.04 K, Liquid | 993.2
345.74 K, Liquid | 995
345.83 K, Liquid | 995
347.62 K, Liquid | 997.3
347.64 K, Liquid | 996.7
349.41 K, Liquid | 998.5
349.55 K, Liquid | 999.7
350 K, Liquid | 1000
351.2 K, Liquid | 1000
351.45 K, Liquid | 1001
353 K, Liquid | 1003
353.35 K, Liquid | 1003
354.79 K, Liquid | 1004
355.25 K, Liquid | 1006
356.58 K, Liquid | 1007
357.16 K, Liquid | 1007
358.37 K, Liquid | 1009
359.06 K, Liquid | 1009
360 K, Liquid | 1010
360.16 K, Liquid | 1011
360.96 K, Liquid | 1011
361.95 K, Liquid | 1013
362.86 K, Liquid | 1013
363.74 K, Liquid | 1014
364.75 K, Liquid | 1015
365.52 K, Liquid | 1016
366.65 K, Liquid | 1018
367.31 K, Liquid | 1018
368.55 K, Liquid | 1020
370 K, Liquid | 1022
